Consider 14 compounds from US4199504A (priority 1978, dated 1980).

In data set [1] the test system is Gardner lymphosarcoma (GLS). The data set is described as follows: Gardner lymphosarcoma (GLS) transplanted in mice, tumor inhibition or prolongation of survival. The data set is classed as in vivo. The method, then:
(§1) The compounds of this invention and those preparable by the process disclosed herein are active against transplanted tumors in mice in vivo.
(§2) The following table--Table 1--gives the results of experiments in which mice bearing transplanted Gardner lymphosarcoma (GLS), C3 H mammary tumor, B16 melanoma, P 1534(J) leukemia, P388 leukemia or 755 adenocarcinoma were treated with a compound of this invention. In the table, column 1 gives the name of the compound; column 2, the tumor system employed; column 3, the dosage schedule and column 4, the percent inhibition of tumor growth or increased life span.

The test system of data set [2] is experimental malignancies. The settings on record: naturally-occurring Vinca alkaloids; prior patents; cited from earlier work.
In data set [3] the test system is P388 leukemia. The data set is described as follows: P388 leukemia transplanted in mice, tumor inhibition or prolongation of survival. The data set is classed as in vivo. As to the method: as §1, §2
Data set [4] concerns 755 adenocarcinoma. The data set is described as follows: 755 adenocarcinoma transplanted in mice, tumor inhibition or prolongation of survival. The format is in vivo. As to the method:
as §1, §2

Data set [5] deals with P 1534(J) leukemia. The data set is described as follows: P 1534(J) leukemia transplanted in mice, tumor inhibition or prolongation of survival. The format is in vivo. The settings on record: P1534(J). As to the method: as §1, §2
Data set [6] concerns C3 H mammary tumor. The data set is described as follows: C3H mammary tumor transplanted in mice, tumor inhibition or prolongation of survival. The format is in vivo. The method, then:
as §1, §2

The test system of data set [7] is B16 melanoma. The data set is described as follows: B16 melanoma transplanted in mice, tumor inhibition or prolongation of survival. The data set is classed as in vivo. The method, then:
as §1, §2

The test system of data set [8] is leukemias. The settings on record: clinical trial in humans; cited from earlier work.

For the compound `CCC1(O)CC2CN(CCc3c([nH]c4ccccc34)C(C(=O)OC)(c3cc4c(cc3OC)N(C)C3C(O)(C(=O)NCCCCNC(=O)C5(O)C(O)C6(CC)C=CCN7CCC8(c9cc(C%10(C(=O)OC)CC%11CN(CCc%12c%10[nH]c%10ccccc%12%10)CC(O)(CC)C%11)c(OC)cc9N(C)C58)C76)C(O)C5(CC)C=CCN6CCC43C65)C2)C1` (stereo not drawn) [1,4-bis(4-Desacetyl VLB C-3 carboxamido)butane disulfate], in data set [1] (0.4 mg./kg. × 9), the “Percent Inhibition or Prolongation of Survival Time” value came out at 40%.
Turning to `CCC1(O)CC2CN(CCc3c([nH]c4ccccc34)C(C(=O)OC)(c3cc4c(cc3OC)N(C)C3C(O)(C(=O)OC)CC5(CC)C=CCN6CCC43C65)C2)C1` (stereo not drawn) [4-desacetoxyvinblastine], the “active in the treatment of experimental malignancies in animals” value (from here on “active in the treatment”) in data set [2] is listed as “active”.
Consider `CCC1(O)CC2CN(CCc3c([nH]c4ccccc34)C(C(=O)OC)(c3cc4c(cc3OC)N(C)C3C(O)(C(=O)NCCOCCNC(=O)C5(O)C(O)C6(CC)C=CCN7CCC8(c9cc(C%10(C(=O)OC)CC%11CN(CCc%12c%10[nH]c%10ccccc%12%10)CC(O)(CC)C%11)c(OC)cc9N(C)C58)C76)C(O)C5(CC)C=CCN6CCC43C65)C2)C1` (stereo not drawn) [bis[β -(4-Desacetyl VLB C-3 carboxamido)ethyl]ether disulfate], for which the “Percent Inhibition or Prolongation of Survival Time” value in data set [3] (P388, 0.6 mg./kg. × 3) was determined as 53%; in data set [3] (P388, 0.9 mg./kg. × 3) it was 77%; in data set [3] (P388, 1.2 mg./kg. × 3) it was 85%; in data set [1] (0.4 mg./kg. × 9), 62%. The “Toxic (Percent Inhibition or Prolongation of Survival Time)” value in data set [3] (P388, 1.8 mg./kg. × 3) is listed as “Toxic”.
`CCC1(O)CC2CN(CCc3c([nH]c4ccccc34)C(C(=O)OC)(c3cc4c(cc3OC)N(C)C3C(O)(C(=O)NCC[Se][Se]CCNC(=O)C5(O)C(O)C6(CC)C=CCN7CCC8(c9cc(C%10(C(=O)OC)CC%11CN(CCc%12c%10[nH]c%10ccccc%12%10)CC(O)(CC)C%11)c(OC)cc9N(C)C58)C76)C(O)C5(CC)C=CCN6CCC43C65)C2)C1` (stereo not drawn) [bis[β-(4-Desacetyl VLB C-3 carboxamido)ethyl]diselenide disulfate]: the “Percent Inhibition or Prolongation of Survival Time” value in data set [4] (755, 0.6 mg./kg. × 3) is listed as 26-32%; in data set [4] (755, 0.9 mg./kg. × 3) it was 21-62%; in data set [4] (755, 1.2 mg./kg. × 3) it was 31-42%; in data set [4] (755, 1.8 mg./kg. × 3), 89%; in data set [5] (1.2 mg./kg. × 3) it was 21%; in data set [5] (1.8 mg./kg. × 3) it was 66%. Besides, the “Percent Inhibition or Prolongation of Survival Time” value worked out at 56% in data set [6] (1.5 mg./kg. × 3); 72% in data set [6] (2.0 mg./kg. × 3); 29% in data set [1] (1.5 mg./kg. × 3); 57% in data set [1] (2.0 mg./kg. × 3); 72% in data set [1] (2.5 mg./kg. × 3). For the same compound, the “Toxic (Percent Inhibition or Prolongation of Survival Time)” value in data set [6] (2.5 mg./kg. × 3) is given as “Toxic”.
For `CCC1(O)CC2CN(CCc3c([nH]c4ccccc34)C(C(=O)OC)(c3cc4c(cc3OC)N(C)C3C(O)(C(=O)NCCSSCCNC(=O)C5(O)C(O)C6(CC)C=CCN7CCC8(c9cc(C%10(C(=O)OC)CC%11CN(CCc%12c%10[nH]c%10ccccc%12%10)CC(O)(CC)C%11)c(OC)cc9N(C)C58)C76)C(O)C5(CC)C=CCN6CCC43C65)C2)C1` (stereo not drawn) [bis[β-(4-Desacetyl VLB C-3 carboxamido)ethyl]disulfide disulfate], the “Percent Inhibition or Prolongation of Survival Time” value in data set [3] (P388, 0.6 mg./kg. × 3) was 33-44%; in data set [3] (P388, 0.9 mg./kg. × 3) it was 39-47%; in data set [3] (P388, 1.2 mg./kg. × 3), 53-61%; in data set [4] (755, 0.6 mg./kg. × 3), 29-34%; in data set [4] (755, 0.9 mg./kg. × 3) it was 34-54%; in data set [4] (755, 1.6 mg./kg. × 3), 60%. In addition, the “Percent Inhibition or Prolongation of Survival Time” value in data set [5] (0.6 mg./kg. × 3) is 20-39%; in data set [5] (0.9 mg./kg. × 3), 50-53%; in data set [5] (1.2 mg./kg. × 3), 62%; in data set [5] (1.6 mg./kg. × 3) it was 90-99%; in data set [6] (0.9 mg./kg. × 3), 31-36%; in data set [1] (0.4 mg./kg. × 9) it was 43-100%. The “Percent Inhibition or Prolongation of Survival Time” value was 34-46% in data set [1] (0.9 mg./kg. × 3); 62-93% in data set [1] (1.2 mg./kg. × 3); 118% in data set [7] (B16, 0.6 mg./kg. × 3); 86% in data set [7] (B16, 0.9 mg./kg. × 3); 24% in data set [7] (B16, 1.2 mg./kg. × 3). The “Toxic (Percent Inhibition or Prolongation of Survival Time)” value in data set [5] (1.2 mg./kg. × 3) and in data set [6] (1.2 mg./kg. × 3) was “Toxic” in each case. In addition, the “number of indefinite survivors” value worked out at 7 in data set [7] (B16, 0.6 mg./kg. × 3); 7 in data set [7] (B16, 0.9 mg./kg. × 3); 3 in data set [7] (B16, 1.2 mg./kg. × 3).
Regarding `CCC1CC2CN(CCc3c([nH]c4ccccc34)C(C(=O)OC)(c3cc4c(cc3OC)N(C)C3C(O)(C(=O)OC)C(OC(C)=O)C5(CC)C=CCN6CCC43C65)C2)C1` (stereo not drawn) [deoxy VLB "A"], the “active in the treatment” value in data set [2] is reported as “active”.
For `CCC1(O)CN2CCc3c([nH]c4ccccc34)C(C(=O)OC)(c3cc4c(cc3OC)N(C)C3C(O)(C(=O)OC)C(OC(C)=O)C5(CC)C=CCN6CCC43C65)CC(O)(C2)C1` (stereo not drawn) [leurocolombine], the “active in the treatment” value in data set [2] is recorded as “active”.
Take `CC[C@]1(O)C[C@H]2CN(CCc3c([nH]c4ccccc34)[C@@](C(=O)OC)(c3cc4c(cc3OC)N(C=O)[C@H]3[C@@](O)(C(=O)OC)[C@H](OC(C)=O)[C@]5(CC)C=CCN6CC[C@]43[C@@H]65)C2)C1` [leurocristine]: in data set [2], the “active in the treatment” value is “active”.
For the compound `CC[C@]12CN3CCc4c([nH]c5ccccc45)[C@@](C(=O)OC)(c4cc5c(cc4OC)N(C=O)[C@H]4[C@@](O)(C(=O)OC)[C@H](OC(C)=O)[C@]6(CC)C=CCN7CC[C@]54[C@@H]76)C[C@@H](C3)[C@H]1O2` [leuroformine], the “active in the treatment” value in data set [2] is reported as “active”.
`CCC1(O)CC2CN(CCc3c([nH]c4ccccc34)C(C(=O)OC)(c3cc4c(cc3OC)N(C)C3C(O)(C(=O)OC)C(OC(C)=O)C5(CC)C=CCN6CCC43C65)C2)C1` (stereo not drawn) [leurosidine]: in data set [2], the “active in the treatment” value is reported as “active”.
As to `CC[C@]12CN3CCc4c([nH]c5ccccc45)[C@@](C(=O)OC)(c4cc5c(cc4OC)N(C)[C@H]4[C@@](O)(C(=O)OC)[C@H](OC(C)=O)[C@]6(CC)C=CCN7CC[C@]54[C@@H]76)C[C@H](C3)[C@H]1O2` [leurosine], the “active in the treatment” value in data set [2] is recorded as “active”.
Consider `CCC1(O)CN2CCc3c([nH]c4ccccc34)C(C(=O)OC)(c3cc4c(cc3OC)N(C)C3C(O)(C(=O)OC)C(OC(C)=O)C5(CC)C=CCN6CCC43C65)CC(C2)C1O` (stereo not drawn) [vincadioline], for which the “active in the treatment” value in data set [2] is on record as “active”.
For the compound `CC[C@]1(O)C[C@@H]2CN(CCc3c([nH]c4ccccc34)[C@@](C(=O)OC)(c3cc4c(cc3OC)N(C)[C@H]3[C@@](O)(C(=O)OC)[C@H](OC(C)=O)[C@]5(CC)C=CCN6CC[C@]43[C@@H]65)C2)C1` [vincaleukoblastine], the “active in the treatment” value in data set [2] is on record as “active”.
`CC[C@]1(O)C[C@@H]2CN(CCc3c([nH]c4ccccc34)[C@@](C(=O)OC)(c3cc4c(cc3OC)N(C)[C@H]3[C@@](O)(C(N)=O)[C@H](O)[C@]5(CC)C=CCN6CC[C@]43[C@@H]65)C2)C1` [vindesine, 4-desacetyl VLB C-3 carboxamide]: in data set [8], the effectiveness against leukemias result is “effective against leukemias including vincristine-resistant leukemias” and the “neurotoxicity compared with vincristine” value is recorded as “less neurotoxicity than does vincristine”.
